The values that follow come from patent US20080221074A1, “Drug Screen and Treatment Method” (priority 2006, published 2008).

“Also recorded” adds a separate entry of the source. A value given as a limit tells only on which side of the number the result lay.

The test system of series [1] is blood glucose in db/db mice. Briefly: glucose lowering in diabetic db/db mice. Type of series: in vivo, db/db C57BL/Ks mice. As for the experimental part:
Glucose lowering and amelioration of insulin resistance. Glucose lowering effects and amelioration of insulin resistance was assessed in the diabetic db/db mouse model of human diabetes and insulin resistance. In these studies, db/db C57BL/Ks mice of approximately 8 to 10 weeks of age were divided into groups of 10 each and then treated with a vehicle control (no drug) or 17α-ethynylandrost-5-ene-3β,7β,17β-triol by oral gavage. The compound was administered twice a day at 20 mg/kg/day (10 mg/kg dose administered twice per day), 40 mg/kg/day (20 mg/kg dose administered twice per day) or 80 mg/kg/day (40 mg/kg dose administered twice per day) for up to 28 days. Blood glucose levels were monitored twice a week during the dosing period, using a minute amount of blood (nick tail bleeds) to measure the concentration of glucose by glucometer strips. At specific times during the dosing period (day 14 and day 28), an oral glucose tolerance test (OGTT) was also performed by administering a standard oral dose of 1 g/kg glucose (approximately 40 mg in a […]) and then the fluctuation of blood glucose levels was monitored quickly thereafter after at 15, 30, 60 and 120 minutes after the glucose dose. […] Blood glucose approached 380 mg/dL in the vehicle control group and was <230 mg/dL after at least 10 days of dosing in the drug treated group.
A treatment protocol similar to that described in example 15 was performed with db/db mice that were younger than the animals described in example 15. The animals (n=8 to 10 per group) were treated with 17α-ethynylandrost-5-ene-3β,7β,17β-triol or vehicle by oral gavage twice per day at 40 mg/kg/day (20 mg/kg dose given twice per day) and 80 mg/kg/day (40 mg/kg dose given twice per day). At the start of dosing, the animals were 6 weeks of age, before the onset of elevated glucose levels or hyperglycemia. Dosing with vehicle or drug was maintained for 32 days to determine the effect of the treatments on the onset and rate of progression of hyperglycemia in the animals. In the control group, the onset of hyperglycemia was observed after 25 days of dosing and it continued to worsen, i.e., blood glucose levels rose from normal to frank hyperglycemia, through the end of the 32 day dosing period.

The next series relates to osteoprotegerin. Briefly: osteoprotegerin levels in dexamethasone treated mice. The note with it: vehicle, dexamethasone and compound at 4 mg/kg/day; p<0.05. Type of series: in vivo. Here is the method:
Osteoprotegerin levels in mice that were treated with vehicle and dexamethasone at 10 μg/day (positive control group) had 3.3 pMol/L osteoprotegerin, while animals treated with vehicle, dexamethasone and 17α-ethynyl-5-androstene-3β,7β,17β-triol at 4 mg/kg/day had 6.4 pMol/L osteoprotegerin (p<0.05).

Series [2] concerns human T lymphocytes (PBMC). Nature of the series: human mixed lymphocyte reaction (MLR). Type of series: cell-based. As to conditions: 300 nM or 30 nM.
Series [3] deals with collagen induced arthritis. Briefly: collagen induced arthritis (bCII), Foxp3+ cells and clinical score. Type of series: in vivo, DBA/1Lac/J mice. Here is the method: Increase of CD4^+CD25^+ T regulatory cells or their activity in vivo. The compound 17α-ethynylandrost-5-ene-3β,7β,17β-triol was administered to mice essentially as described in a previously described collagen induced arthritis animal model. H. Offner et al., Clin. Immunol., 110:181-190, 2006.
DBA/1Lac/J mice were used for the study. The mice were obtained from Jackson Laboratories (Bar Harbor, Harbor, […].) and housed in accordance with applicable institutional guidelines. Bovine type II collagen (bCII) was used to induce collagen induced arthritis (CIA) by immunizing 8-week-old mice with 200 μg of bCII emulsified 1:1 with CFA containing 200 μg Mycobacterium tuberculosis (100 μL; Difco, Detroit, Mich.). The antigen was injected intradermally at the base of the tail. The animals were monitored for 4-7 weeks to observe the onset and progression of the disease post-immunization. The arthritic severity was evaluated with a grading system for each paw according to the following scale: 0=no redness or swelling; 1=slight swelling in ankle or redness in foot; 2=progressed swelling and inflammation and redness from ankle to mid foot; 3=swelling and inflammation of entire foot; 4=swelling and inflammation of entire foot including toes.
After immunization, the mice were treated with the drug at 40 mg/kg/day in vehicle by oral gavage beginning at the start of observable clinical disease (beginning at about 26-27 days after immunization). The vehicle that was used for the protocol was 30% cyclodextrin-sulfobutylether in water. The cyclodextrin-sulfobutylether was obtained commercially (Captisol™ available at cydexinc.com). The drug formulation was 20 mg drug/mL in the vehicle.

`C#C[C@]1(O)CC[C@H]2[C@@H]3[C@@H](O)C=C4C[C@@H](O)CC[C@]4(C)[C@H]3CC[C@@]21C` [17α-ethynylandrost-5-ene-3β,7β,17β-triol]: the “OGTT peak glycemic excursion” value in series [1] (80 mg/kg b.i.d. for 28 days, 30-min post-oral glucose) was under 200 mg/dL. Besides, the onset of hyperglycemia entry in series [1] (6 week old db/db mice, 32 day dosing) is listed as “did not rise above normal levels; also recorded: completely blocked progression”. For the same compound, the “decrease in hyperglycemic blood glucose levels” value in series [1] (8 to 10 week old db/db mice, oral gavage twice a day) was “approximately 40%”. Moreover, the basal blood glucose entry in series [1] (8 week old male db/db mice, 40 mg/kg dose group, twice a day) is “markedly suppressed”. The blood glucose in series [1] (after at least 10 days of dosing) was under 230 mg/dL. Besides, the “glucose intolerance in OGTT vs vehicle” value in series [1] (treated db/db animals) is listed as “significant amelioration of glucose intolerance”. For the same compound, the osteoprotegerin with osteoprotegerin turned out to be 6.4 pmol/L. Also, in series [2], the “immune suppression (inhibition of the MLR)” value is “not appreciably immune suppressive”. Further, the “Foxp3^+ CD4^+ cells by cell sorter analysis” value in series [3] (40 mg/kg/day oral gavage) was found to be 1.4%. Also, the “maximum mean clinical score” value in series [3] (day 34 after immunization) was “about 5”. Also, the mean clinical score result in series [3] (day 49 after immunization) is on record as “about 3”.
